Assay results: PMC6554663, “Pharmaceutical Effects of Inhibiting the Soluble Epoxide Hydrolase in Canine Osteoarthritis” (Frontiers in Pharmacology, 2019)
Values after ≈ are worked out from the molar mass of the structure shown. Values joined by “and” are separate entries in the source; they are usually repeats but may differ in a detail not shown here. Identical values can stand only once. Like-named read-outs stand apart in the source and are kept apart here.

Legend:
[1] = PK analysis in satellite dogs; type: in vivo, dog; details: for half-life / AUC(0-t) / Cmax: whole blood; for AUC(0-t) / Cmax: po
Method: (§1) Eight satellite dogs (2 per each group) had whole blood collected for PK analysis on study Days […]. On Day 1, blood was collected immediately prior to dosing, and again at 0.25, 0.5, 1, 2, 4, 6, and 8 (±5 min) after dosing. On Day 2 through 4, blood was collected 0.5 h (±5 min) after dosing. On Day 5 blood was collected immediately prior to dosing, and again at 0.25, 0.5, 1, 2, 4, 6, 8 (±5 min), 24, 48, and 72 h (±30 min) post treatment. […] For all blood samples, a minimum of 3 mL of whole blood was collected from a suitable vein as per written and approved standard operating procedures. The blood was transferred to K2EDTA (spray dried) blood tube and inverted gently multiple times to ensure proper mixing of the blood and anticoagulant. On study Day 5, synovial fluid was collected by arthrocentesis immediately after the subject completed the questionnaire (approximately […] after dosing). Subjects were anesthetized as per written and approved Standard Operating Procedures. A minimum of 0.1 mL of synovial fluid was collected from each subject. Samples were frozen in an upright position and stored at -80°C ± 4°C before being shipped to UC Davis for analysis.
For PK analysis in the satellite group, individual parameters were calculated by fitting blood concentrations to a non-compartmental analysis using Kinetica software (Thermo Fisher Scientific version 5.1). Using the log-linear trapezoidal method, the area under the curve were calculated and were extrapolated to infinity using the last measured plasma concentration (Clast), defined as the timepoint collected 72 h after the last dose or 8 hr after the first dose on day 1, divided by the terminal slope (λz).

Microsomal stability = type: in vitro ADME, dog; details: 60 min, 37°C
Method: Male and female dog liver microsomes (Xenotech) were diluted in potassium phosphate buffer (0.1M, pH 7.4), MgCl2 (3.15 mM), and sodium EDTA (1.05 mM) to a final protein concentration of 1 mg/mL. Compounds were added at 0.1 mM in methanol at 1% and microsomes were activated with 5% (v/v) NADPH regenerating system (100 μL sodium phosphate buffer (0.1M, pH 7.4), 50 μL, glucose-6-phosphate in sodium phosphate buffer (0.1M, pH 7.4), 50 μL NADP+ in sodium phosphate (0.1M, pH 7.4), and 50 μL of 100 Units/mL of […]). […] Compounds were incubated without microsomes or NADPH as negative controls.

Solubility of sEHI = type: physicochemical
Method: […] The non-dissolved compounds were filtered through a 0.22 μm centrifuge filter at 40°C and the supernatant was further diluted 10 times with methanol. The samples were analyzed by LC/MS-MS.

[2] = Blood and synovial fluid concentrations in treated osteoarthritic dogs; type: in vivo, dog; details: for Blood concentration D5 / Synovial fluid concentration D1 / Synovial fluid concentration D5: po, qd x 5, detected EC3039, individual dogs;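 for Synovial fluid concentration D1: synovial fluid also sampled on Day 1 after the pain assessment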
Method: as §1
Pain and function were assessed by a questionnaire answered by blinded technicians based on observation of study animals housed at InterVivo. The survey was adapted from the canine brief pain inventory (CBPI), which was developed based on clinical questionnaires in which owners score the function and pain level of their pets with existing pain conditions ([Brown et al., 2007]). Modifications to the questionnaire attempted to account for differences between owner pain evaluation of pets and pain evaluation of laboratory dogs by technical staff. For survey administration, blinded technicians attempted to elicit objective behavior-specific measures of function and pain level across a variety of normal canine behaviors (e.g., walking, trotting, galloping, rearing, and stair-climbing, etc.). For this, one technician was responsible for soliciting the relevant behaviors from a dog using encouragement and/or food rewards, while the evaluating technician scored function and observable pain using the modified CBPI questionnaire. Subjects were tested daily on Days -7 through -3, to develop baseline scores, and again on Days 1 through 5 administered 1.5 h after dosing. Dosing occurred in the morning, and observations were recorded 1.5 h after dosing, to limit time-of-day variability. Questions are listed in Supplementary Table S3. Animals in treatment groups had blood and synovial fluid collected ∼2 h after the last dose on day 5 (immediately following the study questionnaire) to confirm plasma concentrations in treated animals. Full pharmacokinetic assessments were collected from a satellite group of animals so as not to interfere with pain assessment.

[3] = female, beagle, dog, 1 mg/kg, dosed EC3039 1 mg/kg oral qd, female dog, Day 1, detected EC3039, blood
[4] = female, beagle, dog, 1 mg/kg, dosed EC3039 1 mg/kg oral qd, female dog, Day 5, detected EC3039, blood
[5] = female, beagle, dog, 5 mg/kg, dosed EC3039 5 mg/kg oral qd, female dog, Day 1, detected EC3039, blood
[6] = female, beagle, dog, 5 mg/kg, dosed EC3039 5 mg/kg oral qd, female dog, Day 5, detected EC3039, blood
[7] = male, beagle, dog, 1 mg/kg, dosed EC3039 1 mg/kg oral qd, male dog, Day 1, detected EC3039, blood
[8] = male, beagle, dog, 1 mg/kg, dosed EC3039 1 mg/kg oral qd, male dog, Day 5, detected EC3039, blood
[9] = male, beagle, dog, 5 mg/kg, dosed EC3039 5 mg/kg oral qd, male dog, Day 1, detected EC3039, blood

CN(C(=O)N[C@H]1CC[C@H](Oc2ccc(C(=O)O)cc2)CC1)c1ccc(OC(F)(F)F)cc1 [EC3039, trans-4-{4-[3-methyl-3-(4-trifluoromethoxy-phenyl)-ureido]-cyclohexyloxy}-benzoic acid]
EC3039 in blood of dogs administered EC1728 ([1]; EC1728 at 1 mg/kg or 5 mg/kg): no detectable amounts
blood concentrations relative to IC50 for sEH ([1]; all treatment groups, duration of the study): exceeded the IC50
fold increase in AUC after fivefold increase in dose ([1]; beagle, dog, in vivo): ~18 fold
fold increase in Cmax after fivefold increase in dose ([1]; beagle, dog, in vivo): 30 to 40 fold
half-life ([1]; beagle, dog, oral, satellite dogs, range over both compounds, Table 3, read-out: half-life): 24 to 40 h
half-life ([1]; beagle, dosed EC3039 1 mg/kg oral qd, female dog, Day 5, detected EC3039, blood, read-out: T1/2 (converted)): 40 h
half-life ([1]; beagle, dosed EC3039 1 mg/kg oral qd, male dog, Day 5, detected EC3039, blood, read-out: T1/2 (converted)): 33 h
half-life ([1]; beagle, dosed EC3039 5 mg/kg oral qd, female dog, Day 5, detected EC3039, blood, read-out: T1/2 (converted)): 25 h
half-life ([1]; beagle, dosed EC3039 5 mg/kg oral qd, male dog, Day 5, detected EC3039, blood, read-out: T1/2 (converted)): 27 h
portion metabolized by demethylation to form EC1728 ([1]; dogs dosed EC3039): < 10%
AUC(0-t) [1, 3]: 3940 ng·h/mL
Cmax [1, 3]: 568 ng/mL
AUC(0-t) [1, 4]: 361000 ng·h/mL
Cmax [1, 4]: 17300 ng/mL
AUC(0-t) [1, 5]: 67200 ng·h/mL
Cmax [1, 5]: 18000 ng/mL
AUC(0-t) [1, 6]: 589000 ng·h/mL
Cmax [1, 6]: 30900 ng/mL
AUC(0-t) [1, 7]: 2490 ng·h/mL
Cmax [1, 7]: 400 ng/mL
AUC(0-t) [1, 8]: 72100 ng·h/mL
Cmax [1, 8]: 2300 ng/mL
AUC(0-t) [1, 9]: 46500 ng·h/mL
Cmax [1, 9]: 16900 ng/mL
Cmax ([1]; male, beagle, dog, 5 mg/kg, dosed EC3039 5 mg/kg oral qd, male dog, Day 5, detected EC3039, blood): 32100 ng/mL
melting point: 92.4 to 94.7 °C
% Parent + NADPH (Microsomal stability; female dog liver microsomes): 85% and 85 ± 2%
% Parent − NADPH (Microsomal stability; female dog liver microsomes): 93 ± 5%
% Parent − NADPH (Microsomal stability; male dog liver microsomes): 97 ± 4%
solubility (Solubility of sEHI; PEG300, organic solvent or mixture): 99 ± 1 mg/mL (≈ 219 mM)
solubility at 24 h (Solubility of sEHI; aqueous buffer, thermodynamic from solid, PBS pH 7.4, 40°C, 24 h): 0.13 ± 0.015 mg/mL (≈ 0.287 mM)
Blood concentration D5 ([2]; dosed EC3039 1 mg/kg, 1 mg/kg): 126 ng/mL and 176 ng/mL and 5340 ng/mL and 347 ng/mL and 346 ng/mL and 81 ng/mL and 408 ng/mL and 328 ng/mL
Synovial fluid concentration D1 ([2]; dosed EC3039 1 mg/kg, 1 mg/kg): 1220 ng/mL and 2710 ng/mL and 4100 ng/mL and 3350 ng/mL and 3100 ng/mL and 1390 ng/mL and 3430 ng/mL and 2100 ng/mL
Synovial fluid concentration D5 ([2]; dosed EC3039 1 mg/kg, 1 mg/kg): 1630 ng/mL and 1480 ng/mL and 11900 ng/mL and 1840 ng/mL and 1440 ng/mL and 586 ng/mL and 2190 ng/mL and 1930 ng/mL
Blood concentration D5 ([2]; dosed EC3039 5 mg/kg, 5 mg/kg): 859 ng/mL and 672 ng/mL and 5550 ng/mL and 6250 ng/mL and 722 ng/mL and 6190 ng/mL and 5650 ng/mL and 929 ng/mL
Synovial fluid concentration D1 ([2]; dosed EC3039 5 mg/kg, 5 mg/kg): 5850 ng/mL and 13570 ng/mL and 14290 ng/mL and 14240 ng/mL and 5220 ng/mL and 14300 ng/mL and 14700 ng/mL and 9520 ng/mL
Synovial fluid concentration D5 ([2]; dosed EC3039 5 mg/kg, 5 mg/kg): 5830 ng/mL and 4640 ng/mL and 9960 ng/mL and 12400 ng/mL and 16100 ng/mL and 11700 ng/mL and 5960 ng/mL
sEHI in blood and synovial fluid relative to dogs treated with EC1728 ([2]; high dose group (5 mg/kg)): ~10 ×
sEHI in blood and synovial fluid relative to dogs treated with EC1728 ([2]; low dose group (1 mg/kg)): approximately 2 ×
